In US12582731B2, “Method to decontaminate solid surface” (BIOMONETA RESEARCH PVT LTD, priority 2022, dated 2026):

What was measured:
microbial load [1] = assay: Microbial load reduction on QAC-coated cotton cloth with or without electric field; format: cell-based
Description: The effect of QAC coating and electric field application on flexible solid surfaces was analysed. The solid surface analysed was fabric (cotton cloth). The procedure for coating of QAC (CTAB or benzalkonium chloride) onto the cotton cloth was identical to the procedure described in Example 1. The final coated amount of QAC (CTAB or benzalkonium chloride) was between 0.01-0.05 mg/cm^2 of the solid surface. The electric field in this experiment was applied via. switch mode power supply (SMPS) with a voltage of 4 kV/cm coupled with a capacitance of 0.05 μF for various time-periods.
Reduction in microbial load was analysed using different methods.

microbial load [2] = assay: Microbial load reduction on cotton cloth coated with quaternary ammonium compound alone; format: cell-based; conditions: no electric field
Description: The solid surface (cotton cloth) was suspended in a solution containing cetyltrimethylammonium bromide (CTAB) or alkyl dimethyl benzyl ammonium chloride (benzalkonium chloride) at various concentrations for about 2 hours. The solid surfaces were then heat dried in a furnace where the temperature was set at about 80° C., for about 8 hours. Once dried, the solid surfaces coated with QAC were ready to be used for various applications.
Reduction in microbial load was analysed at different concentrations of QACs.

For “alkyl dimethyl benzyl ammonium chloride [benzalkonium chloride]”, the “Microbial Load Reduction (Log10 Scale)” value (microbial load [1]; cotton cloth coated with 1% w/v, With Electric Field (SMPS, 4 kV/cm, 0.05 μF), 0 mins) was 0.00 Log10, the “Microbial Load Reduction (Log10 Scale)” value (microbial load [1]; cotton cloth coated with 1% w/v, With Electric Field (SMPS, 4 kV/cm, 0.05 μF), 10 mins) was 1.51 Log10 and the “Microbial Load Reduction (Log10 Scale)” value (microbial load [1]; cotton cloth coated with 1% w/v, With Electric Field (SMPS, 4 kV/cm, 0.05 μF), 30 mins) was 2.39 Log10. For the same substance, the “Microbial Load Reduction (Log10 Scale)” value (microbial load [1]; cotton cloth coated with 1% w/v, Without Electric Field, 0 mins) was 0.00 Log10, the “Microbial Load Reduction (Log10 Scale)” value (microbial load [1]; cotton cloth coated with 1% w/v, Without Electric Field, 10 mins) was 0.82 Log10 and the “Microbial Load Reduction (Log10 Scale)” value (microbial load [1]; cotton cloth coated with 1% w/v, Without Electric Field, 30 mins) was 1.70 Log10. The “Microbial Load Reduction (Log10 Scale)” value (microbial load [1]; cotton cloth coated with 10% w/v, With Electric Field (SMPS, 4 kV/cm, 0.05 μF), 0 mins) was 0.00 Log10, the “Microbial Load Reduction (Log10 Scale)” value (microbial load [1]; cotton cloth coated with 10% w/v, With Electric Field (SMPS, 4 kV/cm, 0.05 μF), 10 mins) was 1.16 Log10 and the “Microbial Load Reduction (Log10 Scale)” value (microbial load [1]; cotton cloth coated with 10% w/v, With Electric Field (SMPS, 4 kV/cm, 0.05 μF), 30 mins) was 3.03 Log10. The “Microbial Load Reduction (Log10 Scale)” value (microbial load [1]; cotton cloth coated with 10% w/v, Without Electric Field, 0 mins) was 0.00 Log10, the “Microbial Load Reduction (Log10 Scale)” value (microbial load [1]; cotton cloth coated with 10% w/v, Without Electric Field, 10 mins) was 0.92 Log10 and the “Microbial Load Reduction (Log10 Scale)” value (microbial load [1]; cotton cloth coated with 10% w/v, Without Electric Field, 30 mins) was 3.10 Log10. The “Microbial Load Reduction (Log10 Scale)” value (microbial load [2]; cotton cloth coated with 1% w/v, 0 mins) was 0.00 Log10, the “Microbial Load Reduction (Log10 Scale)” value (microbial load [2]; cotton cloth coated with 1% w/v, 10 mins) was 0.82 Log10 and the “Microbial Load Reduction (Log10 Scale)” value (microbial load [2]; cotton cloth coated with 1% w/v, 30 mins) was 1.70 Log10. For the same substance, the “Microbial Load Reduction (Log10 Scale)” value (microbial load [2]; cotton cloth coated with 1% w/v, 45 mins) was 4.57 Log10, the “Microbial Load Reduction (Log10 Scale)” value (microbial load [2]; cotton cloth coated with 1% w/v, 60 mins) was 7.48 Log10 and the “Microbial Load Reduction (Log10 Scale)” value (microbial load [2]; cotton cloth coated with 1% w/v, 90 mins) was 7.48 Log10. The “Microbial Load Reduction (Log10 Scale)” value (microbial load [2]; cotton cloth coated with 10% w/v, 0 mins) was 0.00 Log10, the “Microbial Load Reduction (Log10 Scale)” value (microbial load [2]; cotton cloth coated with 10% w/v, 10 mins) was 0.92 Log10 and the “Microbial Load Reduction (Log10 Scale)” value (microbial load [2]; cotton cloth coated with 10% w/v, 30 mins) was 3.10 Log10. For the same substance, the “Microbial Load Reduction (Log10 Scale)” value (microbial load [2]; cotton cloth coated with 10% w/v, 45 mins) was 7.30 Log10, the “Microbial Load Reduction (Log10 Scale)” value (microbial load [2]; cotton cloth coated with 10% w/v, 60 mins) was 7.30 Log10 and the “Microbial Load Reduction (Log10 Scale)” value (microbial load [2]; cotton cloth coated with 10% w/v, 90 mins) was 7.30 Log10.
